Results as given in article PMC9898036, “VIP152 is a selective CDK9 inhibitor with pre-clinical in vitro and in vivo efficacy in chronic lymphocytic leukemia” (Leukemia, 2022).

Columns and labels:
[1] = target: IRAK1 (Homo sapiens, UniProt P51617); test: KINOMEscan: IRAK1; type: binding
Procedure: The structure and synthesis of VIP152 were recently described by Lücking et al.. (Fig. 1A); however, the selectivity of the molecule in cellular systems has yet to be explored. […] We also performed this experiment at 1000 nM, where CDK9 was inhibited at 99%. […] We found a strong concordance between our data and those of Lücking when comparing the most inhibited kinases. Potential off-target effects of VIP152 were next tested in vitro at a concentration of 10 µM for off-target activity against a broad range of receptors, transporters, ion channels, and enzymes (n = 138) using the Eurofins Diversity Panel.
Kinomescan Kinase Profiling Assay
Kinomescan Assay was performed at DiscoverRX and described in Fabian, et al. 2005, Nat.
Biotechnol. In brief, kinases were produced and subsequently tagged with DNA for qPCR detection.
Streptavidin-coated magnetic beads were bound to biotinylated kinase ligands to serve as a solid support.
VIP152 was dissolved in DMSO and tested across a 10 serial threefold dilution set and compared to a test compound and a DMSO control. Kinases which were inhibited by VIP152 would not be bound to the solid-support resulting in decreased substrate for the qPCR reaction. Kinome map was produced via TreeSpot Analysis from DiscoverRX. […]
NanoBRETTM Target Engagement Assay Protocol […]
Complete 20X NanoBRET Tracer Reagent was prepared with Tracer Dilution Buffer and dispensed at a ratio of 1:20 Reagent to cells in the tube. The cell

[2] = target: Adenosine A3 (Homo sapiens, UniProt P0DMS8); test: Eurofins Diversity Panel; type: binding; details: hum, Conc. 10 μM
[3] = target: Androgen (Testosterone) AR (Rattus norvegicus, UniProt P15207); test: Eurofins Diversity Panel; type: binding; details: Conc. 10 μM
[4] = target: Bradykinin B1 (Homo sapiens, UniProt P46663); test: Eurofins Diversity Panel; type: binding; details: hum, Conc. 10 μM
[5] = target: Epidermal Growth Factor (EGF) (Homo sapiens, UniProt P00533); test: Eurofins Diversity Panel; type: binding; details: hum, Conc. 10 μM
[6] = system: broad range of receptors, transporters, ion channels, and enzymes; test: Eurofins Diversity Panel, whole panel (n = 138); type: binding; details: 10 µM, except imidazoline I2, Sigma σ1, adrenergic α2A, α2B, α2C
[7] = target: RET(V804M) (Homo sapiens, UniProt P07949, V804M); test: KINOMEscan: RET(V804M); type: binding; details: 100 nM, read-out: Percent Control
[8] = target: RPS6KA4(Kin.Dom.1-N-terminal) (Homo sapiens, UniProt O75676); test: KINOMEscan: RPS6KA4(Kin.Dom.1-N-terminal); type: binding; details: 100 nM, read-out: Percent Control
[9] = target: RSK3(Kin.Dom.1-N-terminal) (Homo sapiens, UniProt Q15349); test: KINOMEscan: RSK3(Kin.Dom.1-N-terminal); type: binding; details: 100 nM, read-out: Percent Control
[10] = target: RSK3(Kin.Dom.2-C-terminal) (Homo sapiens, UniProt Q15349); test: KINOMEscan: RSK3(Kin.Dom.2-C-terminal); type: binding; details: 100 nM, read-out: Percent Control
[11] = target: STK33 (Homo sapiens, UniProt Q9BYT3); test: KINOMEscan: STK33; type: binding; details: 100 nM, read-out: Percent Control
[12] = target: STK36 (Homo sapiens, UniProt Q9NRP7); test: KINOMEscan: STK36; type: binding; details: 100 nM, read-out: Percent Control
[13] = target: TAOK2 (Homo sapiens, UniProt Q9UL54); test: KINOMEscan: TAOK2; type: binding; details: 100 nM, read-out: Percent Control
[14] = target: TNIK (Homo sapiens, UniProt Q9UKE5); test: KINOMEscan: TNIK; type: binding; details: 100 nM, read-out: Percent Control
[15] = target: WEE2 (Homo sapiens, UniProt P0C1S8); test: KINOMEscan: WEE2; type: binding; details: 100 nM, read-out: Percent Control
[16] = target: ADCK4 (Homo sapiens, UniProt Q96D53); test: KINOMEscan: ADCK4; type: binding; details: 1000 nM, read-out: Percent Control
[17] = target: ALK(L1196M) (Homo sapiens, UniProt Q9UM73, L1196M); test: KINOMEscan: ALK(L1196M); type: binding; details: 1000 nM, read-out: Percent Control
[18] = target: BTK (Homo sapiens, UniProt Q06187); test: KINOMEscan: BTK; type: binding; details: 1000 nM, read-out: Percent Control
[19] = target: CSNK2A1 (Homo sapiens, UniProt P68400); test: KINOMEscan: CSNK2A1; type: binding; details: 1000 nM, read-out: Percent Control
[20] = target: DAPK1 (Homo sapiens, UniProt P53355); test: KINOMEscan: DAPK1; type: binding; details: 1000 nM, read-out: Percent Control
[21] = target: DAPK3 (Homo sapiens, UniProt O43293); test: KINOMEscan: DAPK3; type: binding; details: 1000 nM, read-out: Percent Control
[22] = system: EGFR(L747-T751del,Sins); test: KINOMEscan: EGFR(L747-T751del,Sins); type: binding, human; details: 1000 nM
[23] = target: EPHB1 (Homo sapiens, UniProt P54762); test: KINOMEscan: EPHB1; type: binding; details: 1000 nM, read-out: Percent Control
[24] = target: EPHB3 (Homo sapiens, UniProt P54753); test: KINOMEscan: EPHB3; type: binding; details: 1000 nM, read-out: Percent Control
[25] = target: KIT(L576P) (Homo sapiens, UniProt P10721, L576P); test: KINOMEscan: KIT(L576P); type: binding; details: 1000 nM, read-out: Percent Control
[26] = target: LCK (Homo sapiens, UniProt P06239); test: KINOMEscan: LCK; type: binding; details: 1000 nM, read-out: Percent Control
[27] = target: MARK1 (Homo sapiens, UniProt Q9P0L2); test: KINOMEscan: MARK1; type: binding; details: 1000 nM, read-out: Percent Control
[28] = target: MEK4 (Homo sapiens, UniProt P45985); test: KINOMEscan: MEK4; type: binding; details: 1000 nM, read-out: Percent Control
[29] = target: MINK (Homo sapiens, UniProt Q8N4C8); test: KINOMEscan: MINK; type: binding; details: 1000 nM, read-out: Percent Control
[30] = target: MKK7 (Homo sapiens, UniProt O14733); test: KINOMEscan: MKK7; type: binding; details: 1000 nM, read-out: Percent Control
[31] = target: MLCK (Homo sapiens, UniProt Q32MK0); test: KINOMEscan: MLCK; type: binding; details: 1000 nM, read-out: Percent Control
[32] = target: MST1 (Homo sapiens, UniProt Q13043); test: KINOMEscan: MST1; type: binding; details: 1000 nM, read-out: Percent Control
MST1, sequence (Q13043 whole entry): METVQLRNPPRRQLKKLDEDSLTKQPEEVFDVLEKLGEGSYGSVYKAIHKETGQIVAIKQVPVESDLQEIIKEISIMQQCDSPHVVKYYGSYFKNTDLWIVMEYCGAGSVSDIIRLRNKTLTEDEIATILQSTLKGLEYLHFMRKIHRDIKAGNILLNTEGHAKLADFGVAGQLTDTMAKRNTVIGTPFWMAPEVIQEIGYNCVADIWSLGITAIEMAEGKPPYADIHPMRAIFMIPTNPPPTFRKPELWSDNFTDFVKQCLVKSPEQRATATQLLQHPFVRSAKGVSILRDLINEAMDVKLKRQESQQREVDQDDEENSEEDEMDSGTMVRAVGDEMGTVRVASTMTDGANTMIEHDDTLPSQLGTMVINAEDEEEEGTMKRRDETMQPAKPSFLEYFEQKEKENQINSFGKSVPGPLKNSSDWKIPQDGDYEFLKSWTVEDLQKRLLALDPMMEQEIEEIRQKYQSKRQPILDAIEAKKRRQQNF

IRAK1, sequence (P51617 whole entry): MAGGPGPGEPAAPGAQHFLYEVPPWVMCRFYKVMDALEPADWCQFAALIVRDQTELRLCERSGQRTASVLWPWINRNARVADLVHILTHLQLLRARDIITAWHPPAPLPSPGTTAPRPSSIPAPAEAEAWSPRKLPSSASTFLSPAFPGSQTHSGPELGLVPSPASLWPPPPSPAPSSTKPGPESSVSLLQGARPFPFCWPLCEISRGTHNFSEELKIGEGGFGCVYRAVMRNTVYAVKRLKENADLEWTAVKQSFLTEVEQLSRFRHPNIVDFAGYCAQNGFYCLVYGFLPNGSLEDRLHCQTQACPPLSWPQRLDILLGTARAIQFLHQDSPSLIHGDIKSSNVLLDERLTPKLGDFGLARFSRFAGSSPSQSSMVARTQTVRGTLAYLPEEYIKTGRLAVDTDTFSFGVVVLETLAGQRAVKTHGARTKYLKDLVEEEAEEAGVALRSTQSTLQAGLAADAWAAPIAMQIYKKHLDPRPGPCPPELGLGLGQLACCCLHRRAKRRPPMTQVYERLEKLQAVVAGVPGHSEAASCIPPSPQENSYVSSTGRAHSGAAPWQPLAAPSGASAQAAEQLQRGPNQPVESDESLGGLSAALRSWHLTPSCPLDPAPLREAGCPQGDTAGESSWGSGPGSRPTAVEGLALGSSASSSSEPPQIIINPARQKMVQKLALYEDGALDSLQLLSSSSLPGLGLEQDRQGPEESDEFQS
EPHB1, sequence (P54762 18-984): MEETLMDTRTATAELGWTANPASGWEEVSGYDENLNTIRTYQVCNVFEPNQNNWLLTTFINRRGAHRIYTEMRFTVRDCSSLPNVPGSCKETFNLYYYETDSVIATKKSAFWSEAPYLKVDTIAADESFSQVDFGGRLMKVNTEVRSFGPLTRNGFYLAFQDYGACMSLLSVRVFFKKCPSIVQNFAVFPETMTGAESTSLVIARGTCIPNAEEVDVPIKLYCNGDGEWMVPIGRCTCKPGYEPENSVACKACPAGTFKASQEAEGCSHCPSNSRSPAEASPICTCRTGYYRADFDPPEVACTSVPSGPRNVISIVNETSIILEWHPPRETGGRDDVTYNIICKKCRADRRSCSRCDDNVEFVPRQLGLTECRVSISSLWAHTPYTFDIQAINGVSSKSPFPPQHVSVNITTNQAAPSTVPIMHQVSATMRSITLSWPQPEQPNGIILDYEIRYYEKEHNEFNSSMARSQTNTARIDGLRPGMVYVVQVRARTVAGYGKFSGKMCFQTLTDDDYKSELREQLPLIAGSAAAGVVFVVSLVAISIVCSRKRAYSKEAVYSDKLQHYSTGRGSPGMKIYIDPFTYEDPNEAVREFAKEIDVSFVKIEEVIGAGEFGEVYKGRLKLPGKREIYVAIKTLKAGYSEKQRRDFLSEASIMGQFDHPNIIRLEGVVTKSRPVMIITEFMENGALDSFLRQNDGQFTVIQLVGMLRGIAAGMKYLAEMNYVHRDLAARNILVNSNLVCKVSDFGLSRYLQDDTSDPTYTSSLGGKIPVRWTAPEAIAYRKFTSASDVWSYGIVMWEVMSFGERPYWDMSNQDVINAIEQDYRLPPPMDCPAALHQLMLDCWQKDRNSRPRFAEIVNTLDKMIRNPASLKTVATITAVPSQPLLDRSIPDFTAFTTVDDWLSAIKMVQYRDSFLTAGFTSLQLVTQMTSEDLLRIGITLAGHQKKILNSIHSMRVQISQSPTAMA
CSNK2A1, sequence (P68400 whole entry): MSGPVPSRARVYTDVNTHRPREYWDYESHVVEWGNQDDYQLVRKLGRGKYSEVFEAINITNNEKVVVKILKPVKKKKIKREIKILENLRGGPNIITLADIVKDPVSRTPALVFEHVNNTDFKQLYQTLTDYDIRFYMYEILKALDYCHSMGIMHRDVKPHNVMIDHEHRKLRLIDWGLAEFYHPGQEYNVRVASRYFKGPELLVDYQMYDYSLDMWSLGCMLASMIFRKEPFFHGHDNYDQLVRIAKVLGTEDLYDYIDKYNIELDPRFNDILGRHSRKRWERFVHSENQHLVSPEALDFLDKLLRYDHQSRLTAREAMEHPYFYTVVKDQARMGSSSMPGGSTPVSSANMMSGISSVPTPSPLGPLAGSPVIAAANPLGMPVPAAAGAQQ
Bradykinin B1, sequence (P46663 whole entry): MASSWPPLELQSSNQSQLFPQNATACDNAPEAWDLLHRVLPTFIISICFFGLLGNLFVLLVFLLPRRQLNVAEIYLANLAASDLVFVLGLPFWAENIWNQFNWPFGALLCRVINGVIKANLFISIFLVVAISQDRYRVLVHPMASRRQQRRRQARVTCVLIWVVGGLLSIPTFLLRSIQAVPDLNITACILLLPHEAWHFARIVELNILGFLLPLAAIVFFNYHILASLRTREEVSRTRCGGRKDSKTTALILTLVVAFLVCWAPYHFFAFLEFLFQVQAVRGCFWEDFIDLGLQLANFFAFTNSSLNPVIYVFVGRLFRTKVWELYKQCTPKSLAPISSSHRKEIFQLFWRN
BTK, sequence (Q06187 whole entry): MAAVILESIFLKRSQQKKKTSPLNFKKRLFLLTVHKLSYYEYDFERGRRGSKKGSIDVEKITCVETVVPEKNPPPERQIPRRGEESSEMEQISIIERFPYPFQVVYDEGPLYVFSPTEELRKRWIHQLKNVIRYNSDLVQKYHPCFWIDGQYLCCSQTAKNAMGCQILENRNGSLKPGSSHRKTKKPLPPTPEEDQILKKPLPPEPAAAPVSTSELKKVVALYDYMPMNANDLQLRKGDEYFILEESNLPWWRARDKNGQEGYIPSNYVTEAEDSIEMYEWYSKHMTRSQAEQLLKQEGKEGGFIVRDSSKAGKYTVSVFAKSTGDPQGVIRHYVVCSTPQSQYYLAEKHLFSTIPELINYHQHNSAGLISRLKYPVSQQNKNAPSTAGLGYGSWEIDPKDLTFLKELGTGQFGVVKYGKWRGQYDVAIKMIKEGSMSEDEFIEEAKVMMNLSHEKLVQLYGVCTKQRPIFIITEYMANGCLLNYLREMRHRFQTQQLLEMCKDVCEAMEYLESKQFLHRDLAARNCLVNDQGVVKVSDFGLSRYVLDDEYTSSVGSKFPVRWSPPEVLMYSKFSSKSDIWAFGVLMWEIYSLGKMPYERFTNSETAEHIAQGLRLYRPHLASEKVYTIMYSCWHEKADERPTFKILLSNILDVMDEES
RSK3(Kin.Dom.1-N-terminal), sequence (Q15349 1-388 limits assumed): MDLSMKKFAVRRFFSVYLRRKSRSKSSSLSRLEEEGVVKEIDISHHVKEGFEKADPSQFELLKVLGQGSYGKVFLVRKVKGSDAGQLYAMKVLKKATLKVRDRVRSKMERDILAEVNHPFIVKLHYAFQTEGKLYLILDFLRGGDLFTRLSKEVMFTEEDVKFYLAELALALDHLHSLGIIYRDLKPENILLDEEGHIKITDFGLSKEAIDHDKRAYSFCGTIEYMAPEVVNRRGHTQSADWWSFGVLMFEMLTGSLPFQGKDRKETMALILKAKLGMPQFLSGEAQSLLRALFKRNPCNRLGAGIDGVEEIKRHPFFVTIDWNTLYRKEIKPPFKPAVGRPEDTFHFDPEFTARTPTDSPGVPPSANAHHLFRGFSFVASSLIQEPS
WEE2, sequence (P0C1S8 whole entry): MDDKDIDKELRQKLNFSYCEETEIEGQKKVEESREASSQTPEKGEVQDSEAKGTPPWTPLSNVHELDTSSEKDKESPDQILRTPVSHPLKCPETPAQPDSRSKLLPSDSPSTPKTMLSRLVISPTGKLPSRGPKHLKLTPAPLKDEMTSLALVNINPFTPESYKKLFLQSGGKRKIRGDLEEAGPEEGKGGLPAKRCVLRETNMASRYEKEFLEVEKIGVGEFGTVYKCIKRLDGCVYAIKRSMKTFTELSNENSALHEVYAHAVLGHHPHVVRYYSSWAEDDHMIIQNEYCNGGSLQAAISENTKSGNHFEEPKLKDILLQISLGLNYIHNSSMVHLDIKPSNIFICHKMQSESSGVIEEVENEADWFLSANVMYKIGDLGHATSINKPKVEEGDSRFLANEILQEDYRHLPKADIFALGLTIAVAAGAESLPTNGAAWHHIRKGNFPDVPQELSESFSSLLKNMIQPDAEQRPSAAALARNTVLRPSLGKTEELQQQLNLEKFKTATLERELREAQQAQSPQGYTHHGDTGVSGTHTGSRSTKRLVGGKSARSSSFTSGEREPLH
MKK7, sequence (O14733 whole entry): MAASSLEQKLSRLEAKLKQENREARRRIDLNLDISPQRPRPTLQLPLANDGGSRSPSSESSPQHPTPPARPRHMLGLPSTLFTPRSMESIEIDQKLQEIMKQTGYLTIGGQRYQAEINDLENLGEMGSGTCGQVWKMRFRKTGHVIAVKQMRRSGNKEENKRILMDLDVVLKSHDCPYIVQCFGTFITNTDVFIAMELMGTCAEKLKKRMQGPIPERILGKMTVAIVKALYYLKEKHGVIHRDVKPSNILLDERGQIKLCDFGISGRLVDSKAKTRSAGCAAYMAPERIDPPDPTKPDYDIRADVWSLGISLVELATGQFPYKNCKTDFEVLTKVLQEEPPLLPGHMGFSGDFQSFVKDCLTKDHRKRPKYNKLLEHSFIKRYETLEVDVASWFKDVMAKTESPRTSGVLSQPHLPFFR

COc1cc(F)ccc1-c1cc(Nc2cc(CS(C)(=N)=O)ccn2)ncc1F (stereo not shown) [VIP152]
inhibition at 1 µM ([1]; 1000 nM): 98.4% | remaining binding at 0.1 µM ([1]; IRAK1, 100 nM, read-out: Percent Control): 59% | remaining binding at 1 µM ([1]; IRAK1, 1000 nM, read-out: Percent Control): 1.6% | inhibition at 10 µM [2]: 43% | inhibition at 10 µM [3]: 35% | inhibition at 10 µM [4]: 1% | inhibition at 10 µM [5]: -15% | off-target activity across the panel [6]: No significant (>50%) interference | remaining binding at 0.1 µM [7]: 100% | remaining binding at 0.1 µM [8]: 100% | remaining binding at 0.1 µM [9]: 100% | remaining binding at 0.1 µM [10]: 100% | remaining binding at 0.1 µM [11]: 88% | remaining binding at 0.1 µM [12]: 100% | remaining binding at 0.1 µM [13]: 92% | remaining binding at 0.1 µM [14]: 100% | remaining binding at 0.1 µM [15]: 100% | remaining binding at 1 µM [16]: 82% | remaining binding at 1 µM [17]: 91% | remaining binding at 1 µM [18]: 100% | remaining binding at 1 µM [19]: 97% | remaining binding at 1 µM [20]: 87% | remaining binding at 1 µM [21]: 91% | Percent Control [22]: 97% | remaining binding at 1 µM [23]: 99% | remaining binding at 1 µM [24]: 100% | remaining binding at 1 µM [25]: 72% | remaining binding at 1 µM [26]: 56% | remaining binding at 1 µM [27]: 89% | remaining binding at 1 µM [28]: 89% | remaining binding at 1 µM [29]: 29% | remaining binding at 1 µM [30]: 100% | remaining binding at 1 µM [31]: 100% | remaining binding at 1 µM [32]: 92%
